These results are taken from patent US4837342A, “Prostacyclin analogue, and blood circulation improving agent and anti-ulcer composition containing it as active ingredient” (Sagami Chemical Research Center, priority 1986, dated 1989).

Structures are written as SMILES. Values joined by “and” are separate entries in the source; they are usually repeats but may differ in a detail not shown here. Equal values may be shown once.

For series [1], the system named is Indomethacine ulcer. The experiment in a line: Indomethacine ulcer inhibiting activity. The series is classed as in vivo, Male wister rats. Conditions: rat; oral administration of 60 μg/kg twice. From the text:
Indomethacine ulcer inhibiting activity
Male wister rats having a weight of from 210 to 270 g were used. The rats were starved in the same manner as in Test Example 6. […] Three hours after the indomethacine administration, the test compound or PGE2 was again orally administered in the same amount. Six hours after the first administration of indomethacine, each rat was killed by cervical bertebral luxation. The stomach was taken out and fixed, and the ulcer index was obtained, in the same manner as in Test Example 6.
The indomethacine ulcer inhibiting activity of a test compound was represented by the inhibiting percentage (i.e. the inhibiting percentage of the ulcer index of the treated group to the ulcer index of the non-treated group). To the non-treated group, the solvent was administered.

For series [2], the system named is diastolic blood pressure. The experiment in a line: Hypotensive activity, anesthetized dog. The series is classed as in vivo, crossbred adult dog. Conditions: for Hypotensive activity, blood pressure decrease: at 10 μg/kg i.v.; for Activity ratio, hypotensive activity: relative to prostacyclin = 1. The procedure: A male or female crossbred adult dog having a weight of from 9 to 14 kg was anesthetized by intraveous administration of sodium Pentobarbital. Then, the left carotid was exposed under artificial respiration, and the blood pressure was measured by using an electric blood pressure meter. […]

The subject of series [3] is Ethanol ulcer. Put plainly: Ethanol ulcer inhibiting activity. In kind it is in vivo, Male wister rats. Conditions: rat. The procedure:
Ethanol ulcer inhibiting activity
Male wister rats having a weight of from 170 to 270 g were put into individual cages and starved for 24 hours. During this starvation period, the rats were allowed to drink water freely. A test compound or PGE2 as a comparative compound was orally administered in an amount of 3, 10 or 30 μg/kg, and 30 minutes later, 1 ml of 99.5% ethanol was orally administered to each rat. One hour after the ethanol administration, each rat was filled by cervical vertebral luxation, and the stomach was taken out. A 1% formaline solution was injected into the stomach in an amount of about 8 ml, and the stomach was fixed in the formaline solution for 30 minutes. After the fixing, the stomach was severed along the greater curvature, and the mucous membrane surface of the stomach was gently washed with flowing water. Then, the total length of damages appearing on the gastric glandular portion was obtained and used as the ulcer index.
The ethanol ulcer inhibiting activity of a test compound was represented by ED50 (i.e. the dose of the test compound at which the ulcer was inhibited by 50% relative to the ulcer index of the non-treated group). To the non-treated group, the solvent was administered.

Series [4] concerns blood flow of various organs. The experiment in a line: Blood flow increasing activity in various organs (general statement). The settings on record: in vivo.
Series [5] relates to Hydrochloric acid ulcer. The experiment in a line: Hydrochloric acid ulcer inhibiting activity. The series is classed as in vivo, wister rats. The settings on record: rat, oral administration of 30 μg/kg; for inhibition in vivo at 0.03 mg/kg: 0.6N hydrochloric acid, read-out: Hydrochloric acid ulcer inhibiting activity, Inhibiting rate. The protocol: Hydrochloric acid ulcer inhibiting activity
Male wister […] having a weight of from 190 to 240 g were used. The rats were starved in the same manner as in Test Example 6, and the test compounds and PGE2 were, respectively, orally administered in an amount of 30 μg/kg, and 30 minutes later, 1 ml of 0.6N hydrochloric acid was orally administered. Thirty minutes after the hydrochloric acid administration, each rat was killed by cervical vertebral luxation. Then, the stomach was taken out and fixed, and the ulcer index was obtained, in the same manner as in Test Example 6. The hydrochloric acid ulcer inhibiting activity of a test compound was represented by the inhibiting percentage (i.e. the percentage of the ulcer index of the treated group to the ulcer index of the non-treated group). To the non-treated group, the solvent was administered.

In series [6] the test system is Blood platelet (ADP agglutination). Put plainly: Blood platelet agglutination inhibiting activity (ADP-induced), washed rabbit platelet suspension. In kind it is cell-based, rabbit (Japanese white male rabbits). Conditions: for IC50: Oryctolagus cuniculus, Platelet, ADP 10 μM, concentration suppressing agglutination to 50%, read-out: Platelet agglutination inhibiting activity ED50, ADP agglutination; for Activity ratio, platelet agglutination inhibiting activity, ADP agglutination: relative to prostacyclin = 1. The procedure: (§1) Blood platelet aggutination inhibiting activity
(§2) Japanese white male rabbits having a weight of from 2.0 to 2.5 kg were used.
(§3) Under anesthesia with sodium Pentobarbital, blood was sampled from the carotid artery, and mixed with a 1/7 volume of an anticoagulant citric acid dextrose solution. Then, the mixture was subjected to centrifugal separation at 140×g for 15 minutes, whereupon the supernatant (platelet rich plasma:PRP) was obtained. PRP was subjected to centrifugal separation at 1,300×g for 7 minutes. The blood platelet pellets thus obtained were washed with a HEPES buffer solution (pH 6.5) for washing blood platelets, and subjected to centrifugal separation at 1,300×g for 7 minutes. The blood platelet pellets washed twice under such condition, were suspended in a suspending liquid (a buffer solution for washing blood platelets, which contains 0.1% of human fibrinogen, 1.8 mM of CaCl2 and 1.2 mM of MgCl2) to obtain a blood platelet suspension having a concentration of from 5×10^8 to 8×10^8 platelets/ml.
(§4) The platelet agglutination ability was measured by means of an agglutination meter. To 380 μl of the platelet suspension, 10 μl of a test compound or a solvent as the control, was added. Three minutes later, 10 μl of a platelet agglutinating substance (10 μM of ADP or 1 μg/ml of collagen, as the final concentration) was added thereto to induce agglutination.
(§5) The blood platelet agglutination inhibiting activity of each test compound was represented by ED50 (i.e. the concentration of the test compound where the platelet agglutination is suppressed to 50%).

The test system of series [7] is femoral artery. The experiment in a line: Blood flow-increasing activity in the femoral artery, anesthetized dog. The series is classed as in vivo, crossbred adult dog. Conditions: for ED50: Canis lupus familiaris, dog, near arterial injection, papaverine hydrochloride 100 μg/kg = 100%; for Activity ratio, blood flow-increasing activity in femoral artery: relative to prostacyclin = 1. The protocol:
Blood flow-increasing activity in the femoral artery
A male or female crossbred adult dog having a weight of from 8 to 13 kg, was anesthetized by intravenous administration of sodium Pentobarbital. Then, a tracheal cannula was inserted, and artificial respiration was conducted. The blood flow in the femoral artery was measured by inserting the annula into the left femoral artery under sodium heparin treatment and providing a blood flow measuring probe at it other end, and by using an electromagnetic flow meter. The test compound was injected into the femoral artery by near arterial injection, and the blood flow-increasing activity in the femoral artery was represented by ED50 (i.e. the dose of a test compound at which the blood flow increases by 50%, as evaluated on the bais that the blood flow increase (representing substantially the maximum reaction) by the administration of 100 μg/kg of papaveline hydrochloride into the femoral artery, is evaluted to be 100%).

The subject of series [8] is Blood platelet (Collagen agglutination). The experiment in a line: Blood platelet agglutination inhibiting activity (collagen-induced), washed rabbit platelet suspension. In kind it is cell-based, rabbit (Japanese white male rabbits). Conditions: for IC50: Oryctolagus cuniculus, Platelet, collagen 1 μg/ml, concentration suppressing agglutination to 50%, read-out: Platelet agglutination inhibiting activity ED50, Collagen agglutination; for Activity ratio, platelet agglutination inhibiting activity, Collagen agglutination: relative to prostacyclin = 1. The procedure:
as §1, §2, §3, §4, §5

The test system of series [9] is coronary artery. Put plainly: Blood flow-increasing activity in the coronary artery, anesthetized dog. The series is classed as in vivo, crossbred adult dog. The settings on record: for ED50: Canis lupus familiaris, dog, near arterial injection, reactive hyperemia = 100%; for Activity ratio, blood flow-increasing activity in coronary artery: relative to prostacyclin = 1. The protocol:
Blood flow-increasing activity in the coronary artery
A crossbred adult dog having a weight of from 9 to 15 kg was anesthetized with sodium Pentobarbital and subjected to thoractomy under artificial respiration. After pericardiectomy, the frontal descending branch of the left coronary artery was separated from the surrounding tissues, and a blood flow-measuring probe was attached thereto under sodium heparin treatment. The coronary blood flow was measured by using an electromagnetic flow meter. The test compound was injected into the coronary artery by near arterial injection, and the blood flow-increasing activity in the coronay artery was represented by ED50 (i.e. the dose of a test compound at which the blood flow increases by 50%, as evaluated on the basis that the blood flow increase by the reactive hyperemia caused by releasing the blood flow of the coronary artery after blocking it for 15 seconds, is evaluated to be 100%).

The test system of series [10] is vertebral artery. The experiment in a line: Blood flow-increasing activity in the vertebral artery, anesthetized dog. The series is classed as in vivo, crossbred adult dog. The text has this: Blood flow-increasing activity in the vertebral artery
A made or female crossbred adult dog having a weight of from 8 to 13 kg was anesthetized by intravenous administration of sodium Pentobarbital and subjected to thoractomy along the mediam line under artificial respiration to expose the left vertebral artery. Under sodium peparin treatment, a polyethylene cannula was inserted into the vertebral artery, and a blood flow-measuring probe was attached to its other end, to which a blood circulation tube led from the left femoral artery was connected, whereby the blood flow in the vertebral artery was measured by using an electromagnetic flow meter. The test compound was injected into the vertebral artery by near arterial injection, and the blood flow-increasingactivity in the vertebral artery was represented by ED50 (i.e. the dose of a test compound at which the blood flow increases by 50%, as evaluated on the basis that the blood flow increase (representing substantially the maximum reaction) by the administration of 100 μg/kg papaverine hydrochloride into the vertebral artery, is evaluated to be 100%).

Series [11] relates to diastolic blood pressure. The settings on record: background statement; cited from earlier work.
The conditions of series [12]: background; cited from earlier work.
Series [13] relates to ulcer. Put plainly: Anti-ulcer activity (general statement). In kind it is in vivo, animals. Conditions: compared with typical PG such as PGE2. From the text:
On the basis of this discovery, a further research has been made for the application to the prevention and treatment of digestive organ ulcers, and have accomplished the present invention.

The mark [14] stands for this setting: oral administration of 30 μg/kg.

By ED50 is commonly meant the midpoint of the dose-response relation. A high value points to a need for a large dose.

Regarding `CCCCC[C@H](O)/C=C/[C@@H]1[C@H]2CCC(C=CCCC(=O)O)=C[C@H]2C[C@H]1O` [(c), 3-(4-carboxy-1-butenyl)-7-exo-(3α-hydroxy-trans-1-octenyl)-8-endo-hydroxy-cis-bicyclo[4,3,0]nona-2-ene], in series [1], the “Indomethacine ulcer inhibition (in words)” value was “Certain inhibition”. The “Hypotensive activity, blood pressure decrease” value in [2] (dog) is recorded as 27.9 mmHg. In series [2], the “Activity ratio, hypotensive activity” value is “about 1/125 and 1/125”. This compound also gave an Ethanol ulcer inhibition in [3] (setting [14]) of 31.7%. For the same compound, the “Activity to increase the blood flow (in words)” value in series [4] is recorded as “activity to increase the blood flow of various organs to a proper extent”. For the same compound, the inhibition in vivo at 0.03 mg/kg in series [5] was determined as 13.5%. Moreover, in series [6], the IC50 came out at 50 nM and the “Activity ratio, platelet agglutination inhibiting activity, ADP agglutination” value is 1/17. Also, in series [7], the median effective dose (ED50) is 0.56 µg/kg and the “Activity ratio, blood flow-increasing activity in femoral artery” value is listed as 1/23. Besides, in [8], the IC50 was 73 nM and the “Activity ratio, platelet agglutination inhibiting activity, Collagen agglutination” value is on record as 1/21. Moreover, in series [9], the ED50 was found to be 2.1 µg/kg and the “Activity ratio, blood flow-increasing activity in coronary artery” value is reported as 1/210. Besides, the “Blood flow increase in vertebral artery” value in series [10] (dog, at 3 μg/kg, near arterial injection) amounted to 36.9%.
For the compound `CCCCC[C@H](O)/C=C/[C@@H]1[C@H]2C/C(=C/CCCC(=O)O)O[C@H]2C[C@H]1O` [Prostacyclin, (5Z,13E)-(9α,11α,15S)-6,9-epoxy-11,15-dihydroxyprosta-5,13-diene acid], the ED (50 mmHg) in series [2] (Canis lupus familiaris, iv, read-out: Hypotensive activity ED50 (dose reducing diastolic blood pressure by 50 mmHg), heading: Hypotensive activity ED50, dog, femoral vein, Table 1) worked out at 0.24 µg/kg. The “Ethanol ulcer inhibition (in words)” value in series [3] (setting [14]) is on record as “No inhibiting activity”. Further, the “Hydrochloric acid ulcer inhibition (in words)” value in series [5] is given as “No inhibiting activity”. Moreover, the IC50 in [6] was found to be 2.9 nM. In series [11], the “Hypotensive activity of prostacyclin (in words)” value is given as “remarkable hypotensive activities”. For the same compound, the “Chemical stability (in words)” value in series [12] was “very unstable”.
`CCC#CCC(C)[C@H](O)/C=C/[C@@H]1[C@H]2CCC(CCCC(=O)O)=C[C@H]2C[C@H]1O` (stereo partly drawn) [(b), 3-(3-carboxypropyl)-7-exo-(3α-hydroxy-4,8-dimethyl-trans-1-octen-6-ynyl)-8-endo-hydroxy-cis-bicyclo[4,3,0]nona-2-ene]: the “Indomethacine ulcer inhibiting activity, Inhibiting rate” value in [1] is listed as 99.4%. For the same compound, the “Hypotensive activity, blood pressure decrease” value in [2] (dog) turned out to be 27.9 mmHg. The “Activity ratio, hypotensive activity” value in series [2] is “about 1/135”. The ED50 in series [3] (po, P.O., 30 minutes before 99.5% ethanol) was found to be 2.79 µg/kg. The “Activity to increase the blood flow (in words)” value in series [4] is “activity to increase the blood flow of the vertebral artery, coronary artery and femoral artery”. In addition, in [5], the inhibition in vivo at 0.03 mg/kg was found to be 54.8%. Moreover, in series [6], the IC50 worked out at 77 nM and the “Activity ratio, platelet agglutination inhibiting activity, ADP agglutination” value is 1/27. Besides, in series [7], the 50% effect level (ED50) was put at a dose of 0.35 µg/kg and the “Activity ratio, blood flow-increasing activity in femoral artery” value is given as 1/15. The “Anti-ulcer activity (in words)” value in series [13] is reported as “comparable or superior to typical PG having anti-ulcer activities, such as PGE2”. In addition, in series [8], the IC50 was determined as 44 nM and the “Activity ratio, platelet agglutination inhibiting activity, Collagen agglutination” value is reported as 1/12. Also, in series [9], the median effective dose (ED50) came out at 1.2 µg/kg and the “Activity ratio, blood flow-increasing activity in coronary artery” value is reported as 1/120. Besides, in series [10] (Canis lupus familiaris, dog, near arterial injection, papaverine hydrochloride 100 μg/kg = 100%), the ED50 was found to be 0.75 µg/kg. Besides, the “Activity ratio, blood flow-increasing activity in vertebral artery” value in series [10] (relative to prostacyclin = 1) was 1/17.
